From patent US8901345B2, “Process for preparation of optically active diamine derivative salt” (Daiichi Sankyo Company, Limited, priority 2010, dated 2014) come the findings set out here.

Holding throughout (type): physicochemical
Data set [1] is described as follows: Comparison of water solubility of crystals in hydrous toluene/acetonitrile. Conditions: compared with monohydrate crystals of (1b) in the cis-form; water added to a 13% toluene/acetonitrile solution to change percentage water content. The protocol: Water was added to a 13% toluene/acetonitrile solution to change the percentage water content to compare water solubility between the monohydrate crystals of the compound represented by formula (1b) and the monohydrate crystals of the trans-isomer compound represented by formula (1b-trans).

Data set [2] in a line: Crystal form transformation (solid form stability) of crystal polymorphs. The settings on record: for transformation of anhydrous crystals to monohydrate crystals: stirring at 25° C., depending on the percentage water content of the mother liquor, oxalate. The protocol: The Form 2 anhydrous crystals were also found to be excellent in operability such as filtration performance. Powder x-ray diffraction diagrams of the Form 1 and Form 2 anhydrous crystals of compound (1) are shown in FIGS. 1 and 2, respectively, and their diffraction diagrams based on thermal analysis are shown in FIGS. 5 and 6, respectively.
Compound (1a) was treated with anhydrous oxalic acid in 6% hydrous acetonitrile to obtain two crystal polymorphs of monohydrate crystals of the title compound represented by formula (1b) (this production method is described in Example 3 below). Powder x-ray diffraction diagrams of the Form 1 and Form 2 monohydrate crystals are shown in FIGS. 3 and 4, respectively, and their diffraction diagrams based on thermal analysis are shown in FIGS. 7 and 8, respectively.

The nature of data set [3]: Hygroscopicity of crystal polymorphs. Conditions: among the crystal polymorphs of anhydrous crystals of compound (1).

“Also recorded” adds a separate entry of the source. Where a name gives a salt, the structure may show the parent alone.

Consider `CN(C)C(=O)[C@H]1CC[C@@H](N)[C@H](NC(=O)OC(C)(C)C)C1` [(1b-trans)], for which the water solubility entry in data set [1] is given as “highly water-soluble; also recorded: more water-soluble”. Consider `CN(C)C(=O)[C@H]1CC[C@H](N)[C@H](NC(=O)OC(C)(C)C)C1` [Form 1 anhydrous crystals, tert-butyl {(1R,2S,5S)-2-amino-5-[(dimethylamino)carbonyl]cyclohexyl}carbamate oxalate], for which, in data set [2], the “transformation of anhydrous crystals to monohydrate crystals” value is “transformed to monohydrate crystals”.

With `CN(C)C(=O)[C@H]1CC[C@H](N)[C@H](NC(=O)OC(C)(C)C)C1` [Form 1 monohydrate crystals, tert-butyl {(1R,2S,5S)-2-amino-5-[(dimethylamino)carbonyl]cyclohexyl}carbamate oxalate monohydrate], the “crystal transformation when left standing” value in data set [2] (left at room temperature for approximately 2 hours) was “transformed to Form 2 monohydrate crystals”. As for `CN(C)C(=O)[C@H]1CC[C@H](N)[C@H](NC(=O)OC(C)(C)C)C1` [Form 2 anhydrous crystals, tert-butyl {(1R,2S,5S)-2-amino-5-[(dimethylamino)carbonyl]cyclohexyl}carbamate oxalate], the hygroscopicity result in data set [3] was “much less hygroscopic”. The “transformation of anhydrous crystals to monohydrate crystals” value in data set [2] is recorded as “hardly transformed to monohydrate crystals”.
